Experimental data taken from patent US11564923B2, “Compounds and pharmaceutical compositions thereof for the treatment of inflammatory disorders” (Galapagos NV, priority 2017, dated 2023).

What was measured:
[1] = target: Recombinant human JAK3 catalytic domain (amino acids 781-1124) (Homo sapiens, UniProt P52333); assay: JAK3 inhibition assay; type: biochemical
Method: After 45 min at 30° C., reactions are stopped by adding 25 μL/well of 150 mM phosphoric acid. […] Plates are washed 6 times with 300 μL per well of a 75 mM phosphoric acid solution and the bottom of the plates is sealed. […] Kinase activity is calculated by subtracting counts per min (cpm) obtained in the presence of a positive control inhibitor (10 μM staurosporine) from cpm obtained in the presence of vehicle. The ability of a test compound to inhibit this activity (or percentage inhibition) is determined as: […]
cpm test compound=cpm determined for sample with test compound present cpm control=cpm determined for sample with positive control inhibitor cpm vehicle=cpm determined in the presence of vehicle
(§1) Dose dilution series were prepared for the compounds enabling the testing of dose-response effects in the JAK3 assay and the calculation of the IC50 for each compound. Each compound is routinely tested at concentration of 20 μM followed by a 1/5 serial dilution, 10 points in a final concentration of 1% DMSO.

[2] = target: T1, Recombinant human JAK1 (catalytic domain, amino acids 866-1154) (Homo sapiens, UniProt P23458); assay: JAK1 inhibition assay; type: biochemical; settings: read-out: JAK1 potency IC50
T1 construct: catalytic domain, amino acids 866-1154
Method: (§2) After 60 min at room temperature, reactions are stopped by adding 20 μL/well of detection mixture (1× detection buffer (Perkin Elmer, catalog number CR97-100), 0.5 nM Europium-anti-phosphotyrosine (PT66) (Perkin Elmer, catalog number AD0068/AD0069), 10 mM EDTA). […] Kinase activity is calculated by subtracting the ratio obtained in the presence of a positive control inhibitor (1 μM staurosporine) from the ratio obtained in the presence of vehicle. The ability of a test compound to inhibit this activity (or percentage inhibition) is determined as:
(§3) [formula] wherein Fluorescent ratio test compound=ratio RFU665/RFU615*1000 determined for sample with test compound present Fluorescent ratio control=ratio RFU665/RFU615*1000 determined for sample with positive control inhibitor Fluorescent ratio vehicle=ratio RFU665/RFU615*1000 determined in the presence of vehicle
as §1, with “JAK1” for “JAK3”, “the” for “each”, “DMSO. […] The data are expressed as the average IC50 from the assays.” for “DMSO.”

[3] = target: T2, Recombinant human JAK2 (catalytic domain, amino acids 808-1132) (Homo sapiens, UniProt O60674); assay: JAK2 inhibition assay; type: biochemical; settings: read-out: JAK2 potency IC50; note: 0.7 µM ATP
T2 construct: catalytic domain, amino acids 808-1132
Method: as §2, with “CR97-100) with” for “CR97-100),”, “AD0068/AD0069) and” for “AD0068/AD0069),”
as §3
as §1, with “are” for “were”, “compound” for “the compounds”, “JAK2” for “JAK3”, “the” for “each”, “DMSO. […] The data are expressed as the average IC50 from the assays.” for “DMSO.”

[4] = target: T3, Recombinant human TYK2 catalytic domain (amino acids 871-1187) (Homo sapiens, UniProt P29597); assay: TYK2 radioactive assay polyGT substrate; type: biochemical; note: 0.1 µM ATP
T3 construct: catalytic domain (amino acids 871-1187)
T3 sequence (P29597 871-1187): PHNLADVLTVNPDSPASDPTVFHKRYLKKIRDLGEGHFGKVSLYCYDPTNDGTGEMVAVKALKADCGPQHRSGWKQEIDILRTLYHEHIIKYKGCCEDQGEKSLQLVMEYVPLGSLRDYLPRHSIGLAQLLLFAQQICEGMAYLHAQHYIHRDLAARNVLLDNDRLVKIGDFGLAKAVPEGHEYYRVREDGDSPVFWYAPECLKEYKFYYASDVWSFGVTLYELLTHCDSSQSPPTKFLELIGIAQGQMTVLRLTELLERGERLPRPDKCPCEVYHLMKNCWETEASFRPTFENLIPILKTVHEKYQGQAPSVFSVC
Outline: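 Reaction at 30° C. for 120 min, ended with 150 mM phosphoric acid, washed, counted; percent inhibition scaled between vehicle and 10 μM staurosporine cpm.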

[5] = tested on: IL-12 activation of STAT4 in NK-92 cells; assay: IL-12 activation of STAT4 in NK-92 cells using AphaLISA SureFire technology; type: cell-based; settings: Homo sapiens, NK92; IL-12 activation of STAT4 in NK-92 cells, AlphaLISA SureFire; average IC50; read-out: IL12 pSTAT4 IC50
Method: IL-2 is added freshly to the medium with each medium refreshment step. Cells are cultured in a humidified incubator at 37° C. 5% CO2.
A subcultured fraction of NK-92 cells is washed once in culture medium without rhIL-2 the day before the experiment and incubated overnight in a culture flask.
5% CO2. […] NK-92 cells are triggered with rhIL-12 for 30 min at 37° C. 5% CO2.
After 30 min of cytokine stimulation the cells are lysed by addition of 15 μL 5× lysis buffer (supplemented with the AlphaLISA kit). After 10 minutes, plates are frozen at −80° C. overnight and the next day the levels of phospho-STAT4 are quantified using the AlphaLISA SureFire ULTRA p-STAT4 (Tyr693) (Perkin Elmer, Catalogue number ALSU-PST4-A10K) according to the manufacturers instructions. AlphaLISA signal (relative light units) is measured using an Envision (Perkin Elmer).
(§4) The percentage inhibition is calculated as: […]
RLU(trigger/veh): Relative lumescent signal determined in presence of vehicle and trigger
RLU(test compound): Relative luminescent signal determined in presence of test compounds and trigger
PIN values are plotted for compounds tested in dose-response and IC50 values are derived using GraphPad Prism Software applying non-linear regression (sigmoidal) curve fitting. The data are expressed as the average IC50 from different experiments.

[6] = tested on: IFNα activation of STAT1 in PBMC; assay: IFNα activation of STAT1 in PBMC; type: cell-based; settings: Homo sapiens; IFNα activation of STAT1 in PBMC; average IC50; read-out: IFNα signaling inhibitory potency IC50
Method: After these 2 wash steps the cell pellet is dissolved in ammonium chloride buffer (1.5 M NH4Cl, 100 mM NaHCO3 and 10 mM Na2.EDTA) for lysis of the red blood cells.
PBMC are treated with test compound for 30 min at 37° C. 5% CO2. […] After 30 min of test compound/vehicle pre-treatment, PBMC are stimulated for 30 min at 37° C. 5% CO2 with recombinant human IFNα (PeproTech, catalog number 300-02A) at a final concentration of 5 ng/mL by addition of 20 μL (10× concentrated) cytokine trigger to obtain a final volume of 200 μL per well.
After 30 min of cytokine stimulation, 200 μL of cell suspension is transferred to a 96-well V-bottom plate, centrifugated for 5 min at 1000 rpm to pellet cells, followed by removal of supernatant.
as §4
RCLU(vehicle control): Relative Chemiluminescent signal determined in presence of vehicle and trigger
RCLU(test compound): Relative Chemiluminescent signal determined in presence of test compounds and trigger
RCLU(positive control): Relative Chemiluminescent signal determined in presence of positive control and trigger
PIN values are plotted for compounds tested in dose-response and average IC50 values are derived using GraphiPad Prism Software applying non-linear regression (sigmoidal) curve fitting.

Recombinant human JAK3 catalytic domain (amino acids 781-1124), sequence (P52333 781-1124): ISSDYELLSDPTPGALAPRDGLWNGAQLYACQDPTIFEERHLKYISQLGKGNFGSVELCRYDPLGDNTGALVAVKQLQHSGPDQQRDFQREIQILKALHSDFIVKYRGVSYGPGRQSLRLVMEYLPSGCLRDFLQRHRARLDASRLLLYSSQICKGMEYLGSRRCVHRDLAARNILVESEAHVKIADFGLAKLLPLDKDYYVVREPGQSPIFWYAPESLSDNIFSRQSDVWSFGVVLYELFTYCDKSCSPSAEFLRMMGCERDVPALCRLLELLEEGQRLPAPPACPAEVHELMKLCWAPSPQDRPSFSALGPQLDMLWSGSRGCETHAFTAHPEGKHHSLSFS
T2 sequence (O60674 808-1132): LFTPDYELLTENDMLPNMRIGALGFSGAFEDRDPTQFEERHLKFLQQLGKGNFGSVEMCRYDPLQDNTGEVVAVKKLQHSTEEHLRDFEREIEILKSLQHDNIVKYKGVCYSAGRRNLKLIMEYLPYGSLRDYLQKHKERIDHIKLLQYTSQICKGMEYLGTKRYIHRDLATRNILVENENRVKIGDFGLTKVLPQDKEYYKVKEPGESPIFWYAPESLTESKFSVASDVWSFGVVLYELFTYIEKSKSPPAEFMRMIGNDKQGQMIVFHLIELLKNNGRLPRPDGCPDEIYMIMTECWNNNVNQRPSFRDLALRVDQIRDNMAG
T1 sequence (P23458 866-1154): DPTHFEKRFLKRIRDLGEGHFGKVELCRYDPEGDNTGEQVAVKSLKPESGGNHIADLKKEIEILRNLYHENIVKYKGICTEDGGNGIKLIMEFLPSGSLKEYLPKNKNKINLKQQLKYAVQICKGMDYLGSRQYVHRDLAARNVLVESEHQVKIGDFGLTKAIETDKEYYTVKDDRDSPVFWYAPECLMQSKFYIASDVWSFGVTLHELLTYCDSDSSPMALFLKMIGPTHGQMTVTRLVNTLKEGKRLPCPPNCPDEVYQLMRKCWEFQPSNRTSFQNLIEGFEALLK

Structure (SMILES) | IC50 [1] [µM] | IC50 [2] [µM] | IC50 [3] [µM] | IC50 [4] [µM] | IC50 [5] [µM] | IC50 [6] [µM]
Cc1cc(C#N)nnc1Oc1cc(Nc2cc(N)ncn2)c2ncn(C)c2n1 [Compound 3, 6-[7-(6-Amino-pyrimidin-4-ylamino)-3-methyl-3H-imidazo[4,5-b]pyridin-5-yloxy]-5-methyl-pyridazine-3-carbonitrile] | 2.16 | 0.11 | 0.078 | 0.0127 | 0.274 | 0.119
COCCCN(c1cc(Nc2cc(N)ncn2)c2ncn(C)c2n1)c1cnc(C#N)cc1C [Compound 4, 5-[[7-(6-Amino-pyrimidin-4-ylamino)-3-methyl-3H-imidazo[4,5-b]pyridin-5-yl]-(3-methoxy-propyl)-amino]-4-methyl-pyridine-2-carbonitrile] | 0.784 | 0.0923 | 0.0164 | 0.00437 | 0.198 | 0.091
Cn1cnc2c(Nc3ccc(S(C)(=O)=O)cn3)cc(OC(C3CC3)C(F)(F)F)nc21 (stereo not shown) [Compound 22, 5-(1-cyclopropyl-2,2,2-trifluoro-ethoxy)-3-methyl-N-(5-methylsulfonyl-2-pyridyl)imidazo[4,5-b]pyridin-7-amine] | 0.0979 | 0.023 | 0.00335 | 0.00307 | 0.022 | 0.05
COCCNc1cc(Nc2cc(Oc3cnc(C#N)cc3C)nc3c2ncn3C)ncn1 [Compound 31, 5-{7-[6-(2-Methoxy-ethylamino)-pyrimidin-4-ylamino]-3-methyl-3H-imidazo[4,5-b]pyridin-5-yloxy}-4-methyl-pyridine-2-carbonitrile] | 1.05 | 0.187 | 0.0438 | 0.00801 | 0.11 | 0.094
Cc1cc(C#N)ncc1Oc1cc(Nc2cc(NCCC(C)(C)O)ncn2)c2ncn(C)c2n1 [Compound 33, 5-{7-[6-(3-Hydroxy-3-methyl-butylamino)-pyrimidin-4-ylamino]-3-methyl-3H-imidazo[4,5-b]pyridin-5-yloxy}-4-methyl-pyridine-2-carbonitrile] | 0.503 | 0.0676 | 0.0231 | 0.00293 | 0.129 | 0.072
COC1CC(Nc2cc(Nc3cc(Oc4cnc(C#N)cc4C)nc4c3ncn4C)ncn2)C1 (stereo not shown) [Compound 36, 5-{7-[6-(3-Methoxy-cyclobutylamino)-pyrimidin-4-ylamino]-3-methyl-3H-imidazo[4,5-b]pyridin-5-yloxy}-4-methyl-pyridine-2-carbonitrile] | 0.417 | 0.0405 | 0.00917 | 0.00141 | 0.05 | 0.079
Cc1cc(C#N)ncc1Oc1cc(Nc2ccc(C(=O)N3CC(C(C)(C)O)C3)nn2)c2ncn(C)c2n1 [Compound 111, 5-[7-[[6-[3-(1-hydroxy-1-methyl-ethyl)azetidine-1-carbonyl]pyridazin-3-yl]amino]-3-methyl-imidazo[4,5-b]pyridin-5-yl]oxy-4-methyl-pyridine-2-carbonitrile] | 1.05 | 0.31 | 0.0297 | 0.00553 | – | 0.123
Cc1cc(C#N)ncc1Oc1cc(Nc2ccc(N3CCC(N(C)C)C3)cn2)c2ncn(C)c2n1 (stereo not shown) [Compound 182, 5-[7-[[5-[3-(dimethylamino)pyrrolidin-1-yl]-2-pyridyl]amino]-3-methyl-imidazo[4,5-b]pyridin-5-yl]oxy-4-methyl-pyridine-2-carbonitrile] | 0.721 | 0.165 | 0.0764 | 0.0172 | – | –
COCCN(C)c1ccc(Nc2cc(Oc3cnc(C#N)cc3C)nc3c2ncn3C)nc1 [Compound 183, 5-[7-[[5-[2-methoxyethyl(methyl)amino]-2-pyridyl]amino]-3-methyl-imidazo[4,5-b]pyridin-5-yl]oxy-4-methyl-pyridine-2-carbonitrile] | 0.561 | 0.0954 | 0.0412 | 0.0129 | – | –
Cc1cc(C#N)ncc1Oc1cc(Nc2ccc(N3CCC(CO)CC3)cn2)c2ncn(C)c2n1 [Compound 184, 5-[7-[[5-[4-(hydroxymethyl)-1-piperidyl]-2-pyridyl]amino]-3-methyl-imidazo[4,5-b]pyridin-5-yl]oxy-4-methyl-pyridine-2-carbonitrile] | 0.487 | 0.059 | 0.0221 | 0.00642 | – | –
Cc1cc(C#N)ncc1Oc1cc(Nc2ccc(N(C)C)cn2)c2ncn(C)c2n1 [Compound 185, 5-[7-[[5-(dimethylamino)-2-pyridyl]amino]-3-methyl-imidazo[4,5-b]pyridin-5-yl]oxy-4-methyl-pyridine-2-carbonitrile] | 0.871 | 0.0936 | 0.0414 | 0.017 | – | –
Cc1cc(C#N)ncc1N(CC(C)O)c1cc(Nc2cc(N)ncn2)c2ncn(C)c2n1 (stereo not shown) [Cpd 187, 5-[[7-[(6-aminopyrimidin-4-yl)amino]-3-methyl-imidazo[4,5-b]pyridin-5-yl]-(2-hydroxypropyl)amino]-4-methyl-pyridine-2-carbonitrile] | 0.66 | 0.127 | 0.0423 | 0.00654 | – | –
